{
  "source": "paper PMC5409479",
  "about": "(The Journal of Biological Chemistry, 2017)",
  "origin": "cited, not measured here",
  "key": {"[1]": {"test_system": "GLP-1R"}, "[2]": {"test_system": "GLP-1R, mutation of Glu-125 to Ala", "design": "method as in PMID 19815559, PMID 21868452, PMID 20529866"}, "[3]": {"test_system": "GLP-1R L89A", "design": "method as in PMID 19861722"}, "[4]": {"test_system": "GLP-1R, mutation of Trp-39 to Ala or Phe", "conditions": "expression comparable with wild type", "from_the_text": "(§1) This could also move residues Thr-35, Trp-39, Tyr-88, Leu-89, Pro-90, and Trp-91 away from the peptide interface observed in the crystal structure, while bringing Trp-33 and Arg-40 into closer proxim ..."}, "[5]": {"test_system": "GLP-1R, mutation of Arg-40 to Ala", "from_the_text": "as §1"}, "[6]": {"test_system": "GCGR, mutation of Trp-36 to Ala", "conditions": "GCGR Trp-36 to Ala; significantly increased expression", "from_the_text": "as §1"}},
  "data": [
    {"substance": "GLP-1(7–36)NH2: a high affinity agonist", "values": [
      {"measurement": "affinity and agonism (in words)", "setting": "[1]", "value": "a high affinity agonist"}
    ]},
    {"substance": "GLP-1(9–36)NH2", "values": [
      {"measurement": "affinity and agonism (in words)", "setting": "[1]", "value": "a low affinity partial agonist"}
    ]},
    {"substance": "exendin(9–39)", "values": [
      {"measurement": "affinity and agonism (in words)", "setting": "[1]", "value": "a high affinity antagonist"}
    ]},
    {"substance": "GLP-1: cognate ligand of GLP-1R", "values": [
      {"measurement": "GLP-1 binding affinity or function (in words)", "setting": "[2]", "value": "did not significantly impact GLP-1 binding affinity or function"},
      {"measurement": "GLP-1 peptide binding (in words)", "setting": "[3]", "value": "abolishing GLP-1 peptide binding"},
      {"measurement": "GLP-1 binding (in words)", "setting": "[4]", "value": "loss of detectable GLP-1 binding"},
      {"measurement": "binding affinity of GLP-1 (in words)", "setting": "[5]", "value": "small decrease in binding affinity of GLP-1"}
    ]},
    {"substance": "GCG: glucagon", "values": [
      {"measurement": "GCG binding (in words)", "setting": "[6]", "value": "no detectable binding of GCG"}
    ]}
  ]
}
